The results in this text go back to ChEMBL document CHEMBL1144130, “11-Deoxyfistularin-3, a new cytotoxic metabolite from the caribbean sponge Aplysina fistularis insularis” (1999).

Common to all, as to type: functional
One test deals with HeLa. The test can be described thus: Cytotoxicity against human HeLa cells after 96 hrs by MTT assay. The conditions noted are these: read-out: LD50 (the source's name). On the technique in general: Tetrazolium dyes change colour on reduction, which living cells bring about.
Another test relates to MCF7. Nature of the test: Cytotoxicity against human MCF7 cells after 96 hrs by MTT assay. The conditions noted are these: MCF7, 96 h, read-out: LD50 (the source's name).
In the next test the test system is LoVo. Nature of the test: Cytotoxicity against human LoVo cells after 96 hrs by MTT assay. Particulars: read-out: LD50 (the source's name).
A further test concerns RD. Nature of the test: Cytotoxicity against human RD cells after 96 hrs by MTT assay. Particulars: read-out: LD50 (the source's name).
The subject of the next test is HEp-2. Nature of the test: Cytotoxicity against human Hep2 cells after 96 hrs by MTT assay. Particulars: HEp-2, 96 h, read-out: LD50 (the source's name).
Test [1] in a line: Cytotoxicity against human XL17 cells after 96 hrs by MTT assay. Particulars: XL17, 96 h, read-out: LD50 (the source's name).

Structures are written as SMILES. Values after ≈ are worked out from the molar mass of the structure shown.

As to `COC1=C(Br)[C@H](O)[C@@]2(C=C1Br)CC(C(=O)NCCCOc1c(Br)cc(C(O)CNC(=O)C3=NO[C@]4(C=C(Br)C(OC)=C(Br)[C@@H]4O)C3)cc1Br)=NO2` (stereo partly specified), the CC50 in the test on HeLa is 17 µg/mL (≈ 15.5 µM); in the test on MCF7 it was more than 50 µg/mL; in the test with LoVo, 17 µg/mL (≈ 15.5 µM); with RD, 17 µg/mL (≈ 15.5 µM); in the test with HEp-2 it was 17 µg/mL (≈ 15.5 µM); in test [1], 17 µg/mL (≈ 15.5 µM).
